Source: US20180021347A1, “COMPOSITION FOR THE TREATMENT OF HEPATIC VENO-OCCLUSIVE DISEASE” (priority 2015, published 2018)

What was measured:
[1] = cited from earlier work
[2] = human, in vivo; cited from earlier work
[3] = test system: TSECs; assay: Attenuation by treprostinil of busulfan-induced cell death in TSECs; format: cell-based, human
Experimental: TSECs were pretreated with treprostinil (10 μM) for 1 h and examined, if this protected them against busulfan-induced cell death by challenging them—in the continuous presence of treprostinil—with 125 and 250 μM and 500 μM Busulfan (BU). After 24 h, cell viability was determined by counting detached cells in a haemocytometer and determining the number of trypan blue-positive (=dead) and trypan-blue excluding (=live) cells.
TSECs were plated on collagen-coated plastic dishes (5*10^3 cells/24-well plate). After 24 hours treprostinil was added at a concentration of […]. One hour later, busulfan was added at increasing concentrations. Cell viability was assessed after 48 hours.
We examined the concentration range, in which treprostinil protected TSECs against busulfan-induced cell death. TSECs were plated on collagen-coated plastic dishes and after 24 h treprostinil was added at concentrations of 5, 10 and 20 pM. One hour later, busulfan was added at concentrations of 125 and 250 μM. Cell viability was assessed after 48 h. […] The data were analyzed using a 2-way ANOVA.
TSECs were plated on collagen-coated plastic dishes (5*10^3 cells/24-well plate). After 24 hours treprostinil was added at concentrations of 5, 10 and 20 pM. One hour later, busulfan was added at concentration of 125 and 250 μM. Cell viability was assessed after 48 hours. Even low concentrations of treprostinil (5 μM) attenuated busulfan induced cell death. […] The data were analyzed by two-way ANOVA. A Bonferroni post hoc test was conducted to test for differences between individual treatment groups.

[4] = test system: TSECs; assay: Yield of RNA/mRNA from TSECs after busulfan and treprostinil; format: cell-based, human
Experimental: In EC340 cells, concentrations as high as 300 μM were tolerated for 96h and allowed for investigating target gene expression and regulation upon treatment with busulfan. This concentration was not compatible with the extraction of mRNA in TSECs: the amount, quality and stability of mRNA were affected in a dose- and time-dependent manner (FIG. 5 and data not shown). […] Based on the time course of gene regulation in EC340 cells, we tested a treatment duration between of a minimum of 12h and a maximum of 96h (data not shown).
Cells were either treated with 125 μM, 250 μM or 300 μM BU, the combination thereof with treprostinil (10 μM), or treprostinil (10 μM) alone, or kept in standard medium [Endothelial Cell Medium, ECM Sciencell™, USA, TSECs containing 5% fetal bovine serum, 1% endothelial cell growth supplement (ECGS) and 1% penicillin/streptomycin at 37° C. and 5% CO2]. a) Total RNA was extracted by Trizol® (lifetechnologies) according to the manufacturer's protocol. RNA concentration (ng/μl) and purity was determined with Nanodrop 2000®. If equal numbers of cells (1.6×10^5) were seeded per well, treatment with 250 and 300 μM BU induced cell death in as much rendering reproducible and valid yields of absolute RNA content impossible, already after 48h of treatment. b) The absolute yield in RNA preparations (μg/μl) was compared between cells, which had been incubated in standard medium (untreated), and cells, which had been treated with BU (125 or 250 μM BU) plus treprostinil (10 μM Trep), or treprostinil alone.

[5] = test system: plasminogen-activator inhibitor-1 (PAI-1); assay: qPCR of candidate target gene mRNA in TSECs: PAI-1; format: cell-based, human
Experimental: (§1) After pretreatment of TESCs with 10 μM treprostinil for 1 h, cells were co-incubated with 10 μM treprostinil and 125 μM BU for 24 h. Total RNA was extracted by the use of PARIS Kit (life technologies). cDNA synthesis was performed by High-Capacity Reverse Transcription Kit (applied biosystems); the resulting cDNA (equivalent to 50 ng RNA/reaction) was analyzed via qPCR (StepOnePlus real-time PCR System®, Applied Biosystems). 18s rRNA was used as a reference gene.
(§2) Based on preliminary experiments we identified plasminogen-activator inhibitor-1 (PAI-1), tissue factor (TF), tissue factor pathway inhibitor (TFPI) and thrombomodulin (TM) as suitable genes to study the potential of treprostinil to counteract busulfan-induced effects in TSECs. We also tested if busulfan-mediated effects are counteracted by 10 μM treprostinil. A total of 1.5×10^5 TESCs were plated in 6 well plates. As soon as 90% confluence was reached, cells were pretreated with treprostinil for 1 h, then cells were incubated for 24h in standard culture medium containing both BU and treprostinil. Thereafter, cells were washed and mRNA was prepared. Treprostinil counteracted the busulfan-induced increased expression of procoagulatory factors such as PAI-1 and TF (data not shown). […]

[6] = test system: tissue factor (TF); assay: qPCR of candidate target gene mRNA in TSECs: TF; format: cell-based, human
Experimental: as §1, §2

[7] = test system: thrombomodulin (TM); assay: qPCR of candidate target gene mRNA in TSECs: TM; format: cell-based, human; details: data not shown
Experimental: as §1, §2

[8] = test system: tissue factor pathway inhibitor (TFPI); assay: qPCR of candidate target gene mRNA in TSECs: TFPI; format: cell-based, human
Experimental: as §1
Based on preliminary experiments we identified plasminogen-activator inhibitor-1 (PAI-1), tissue factor (TF), tissue factor pathway inhibitor (TFPI) and thrombomodulin (TM) as suitable genes to study the potential of treprostinil to counteract busulfan-induced effects in TSECs. We also tested if busulfan-mediated effects are counteracted by 10 μM treprostinil. A total of 1.5×10^5 TESCs were plated in 6 well plates. As soon as 90% confluence was reached, cells were pretreated with treprostinil for 1 h, then cells were incubated for 24h in standard culture medium containing both BU and treprostinil. Thereafter, cells were washed and mRNA was prepared. Treprostinil counteracted the busulfan-induced increased expression of procoagulatory factors such as PAI-1 and TF (data not shown). […] These observations justify the use of TSECs as an in vitro model system to study surrogate parameters, which are predictive of an increased risk of VOD in vivo.
Treatment of TESCs was performed as indicated in the legend to FIG. 6. Treprostinil-treatment was initiated 1 h prior to addition of busulfan. Cells were collected 24 h later.

[9] = test system: intracellular cAMP levels in TSECs; assay: cAMP accumulation in TSECs; format: cell-based, human; details: 1 h
Experimental: It is desirable to understand the mechanisms, which allow treprostinil to modulate busulfan-induced gene expression, because this allows for searching for additional target genes. It was assumed that the action of treprostinil is mediated by an increased accumulation of cAMP. […] This was seen both, in the presence of 30 μM forskolin ([…], left hand panel) and if the concentration of forskolin was titrated between 1 and 30 μM (FIG. 6, middle and right hand panel). It was also seen regardless of whether [^3H]cAMP was low (FIG. 6, middle panel) or high (FIG. 6, right hand panel).
Control cells were incubated in standard medium. For comparison, cAMP accumulation was also assessed after incubation with dmPGE2. […] In the third experiment, the response was higher, presumably due to more extensive labelling of the adenine nucleotide pool. However, in none of the experiments tested, treprostinil alone sufficed to increase intracellular cAMP levels over that seen in untreated control cells.

[10] = target: T1, EP3-receptors (Homo sapiens, UniProt P43115); details: inhibitory Gi-coupled EP3-receptors; cited from earlier work
T1 sequence (P43115 1-390): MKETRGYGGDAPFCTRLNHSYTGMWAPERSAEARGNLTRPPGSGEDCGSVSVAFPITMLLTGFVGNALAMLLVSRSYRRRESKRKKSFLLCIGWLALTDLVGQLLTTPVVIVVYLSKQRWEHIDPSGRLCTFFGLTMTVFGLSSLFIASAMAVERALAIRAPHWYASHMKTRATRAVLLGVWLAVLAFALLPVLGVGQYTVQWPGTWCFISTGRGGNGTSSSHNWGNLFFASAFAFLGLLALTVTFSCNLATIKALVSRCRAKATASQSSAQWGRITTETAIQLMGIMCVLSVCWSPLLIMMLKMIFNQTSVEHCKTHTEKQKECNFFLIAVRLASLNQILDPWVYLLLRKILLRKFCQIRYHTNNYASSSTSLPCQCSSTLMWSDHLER

[11] = target: EP2-receptors (Homo sapiens, UniProt P43116); details: cited from earlier work
Sequence of EP2-receptors (P43116 whole entry): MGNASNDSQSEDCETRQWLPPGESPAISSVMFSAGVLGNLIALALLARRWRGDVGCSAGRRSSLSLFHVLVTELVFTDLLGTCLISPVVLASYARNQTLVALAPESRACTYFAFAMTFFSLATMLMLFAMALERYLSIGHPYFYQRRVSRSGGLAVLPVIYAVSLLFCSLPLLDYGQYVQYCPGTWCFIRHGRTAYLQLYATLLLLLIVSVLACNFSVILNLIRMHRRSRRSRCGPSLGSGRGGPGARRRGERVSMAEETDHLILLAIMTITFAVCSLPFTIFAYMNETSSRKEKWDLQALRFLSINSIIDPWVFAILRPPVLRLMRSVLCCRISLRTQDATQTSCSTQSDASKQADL

[12] = target: EP4-receptors (Homo sapiens, UniProt P35408); details: cited from earlier work
Sequence of EP4-receptors (P35408 whole entry): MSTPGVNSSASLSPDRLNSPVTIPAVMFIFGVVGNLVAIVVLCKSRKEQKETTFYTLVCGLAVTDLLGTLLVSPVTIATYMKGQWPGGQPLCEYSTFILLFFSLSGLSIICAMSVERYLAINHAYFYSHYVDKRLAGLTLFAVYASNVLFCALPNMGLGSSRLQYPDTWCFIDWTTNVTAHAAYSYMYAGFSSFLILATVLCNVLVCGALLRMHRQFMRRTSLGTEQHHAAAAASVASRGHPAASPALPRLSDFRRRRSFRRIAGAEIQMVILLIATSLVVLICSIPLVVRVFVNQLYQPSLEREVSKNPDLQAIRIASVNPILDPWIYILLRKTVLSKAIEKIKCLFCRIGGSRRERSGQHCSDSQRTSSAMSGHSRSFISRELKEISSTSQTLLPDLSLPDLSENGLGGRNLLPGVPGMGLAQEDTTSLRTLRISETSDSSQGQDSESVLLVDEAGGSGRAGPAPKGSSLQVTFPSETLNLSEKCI

[13] = cited from earlier work; remark: listed apart in the source
[14] = test system: TSECs; assay: Busulfan-induced death of TSECs (trypan blue cell viability); format: cell-based, human
Experimental: (Cheuk D K et al, Bone Marrow transplant 40: 935-944, 2007). We tested, if the toxicity of busulfan was amenable to in vitro studies on TSECs. Accordingly, we defined the concentration-response curve for busulfan-induced death of TSECs. In analogy to Raimer J et al (EurJClinPharmacol 68: 932-935, 2012), who had used ECV304 cells, we plated TSECs on collagen-coated plastic dishes (5×10^3 cells/24-well plate). After 24 hours, busulfan was added at increasing concentrations (10 μM-1 mM). The concentration range was based on reports in the literature and on the serum levels observed in patients undergoing myeloablative chemotherapy. Cell viability was assessed after 24, 48 and 72 h.
TSECs were plated on collagen-coated plastic dishes (5*10^3 cells/24-well plate). After 24 hours busulfan, a cell cycle non-specific alkylating antineoplastic agent, in the class of alkyl sulfonates with a chemical designation is 1,4-butanediol dimethanesulfonate, used as chemotherapeutic agent and known to induce VOD, was added at increasing concentrations (10 μM-1 mM). The concentration range is based on reports in the literature and on the serum levels observed in patients undergoing myeloablative chemotherapy. Cell viability was assessed after 24, 48 and 72 hours. For this purpose cells were washed twice with PBS, trypsinized, mixed with trypan blue (1:1 volumes) and counted using a hemocytometer. […] The data (means±standard deviation) shown represent cell death after for 48 hours.

[15] = test system: EC340 cells; details: 96h; cited from earlier work
[16] = 10 μM treprostinil 1 h pretreatment, then with 125 μM BU for 24 h, data not shown

## CCCCC[C@H](O)/C=C/[C@@H]1[C@H]2C/C(=C/CCCC(=O)O)O[C@H]2C[C@H]1O [Flolan]
[1]
  serum half-life: very short
[2]
  maximum tolerable dosage: 5 to 8 ng/kg/day

## CCCCC[C@H](O)CC[C@@H]1[C@H]2Cc3cccc(OCC(=O)[O-])c3C[C@H]2C[C@H]1O.[Na+] [treprostinil, (1R,2R,3aS,9aS)-[[2,3,3a,4,9,9a-hexahydro-2-hydroxy-1-[(3S)-3-hydroxyoctyl]-1H-benz[f]inden-5-yl]oxy]acetic acid monosodium salt]
[3]; busulfan 125 and 250 μM, 48 h
  concentration close to saturation of protection against busulfan-induced cell death: 10 µM
[3]; treprostinil 10 pM added 1 hour before busulfan 125 and 250 μM, 48 hours
  cell viability: increased viability
[3]; treprostinil 5 μM, busulfan 125 and 250 μM, 48 h
  effect on busulfan-induced cell death: attenuated busulfan-induced cell death
[3]; treprostinil 10 μM, 1 h pretreatment, busulfan 125, 250 and 500 μM, after 24 h, three independent experiments
  effect on BU-induced toxicity (cell viability): attenuated BU-induced toxicity
[3]; treprostinil above 5 μM (10 and 20), busulfan 125 and 250 μM, 48 hours
  beneficial effect on busulfan induced cell death at higher concentrations: did not increase at higher concentrations
[4]; busulfan plus 10 μM treprostinil, pretreated 1 hour and co-incubated 24 h
  loss in RNA yield: 11%
[4]; treprostinil alone (10 μM), 5 independent RNA preparations
  RNA content compared to control cells: 111%
[5]; [16]
  effect on busulfan-induced increased expression of PAI-1: counteracted
[6]; [16]
  effect on busulfan-induced increased expression of TF: counteracted
[7]; 10 μM treprostinil 1 h pretreatment, then with 125 μM BU for 24 h
  effect on busulfan-induced decrease of TM expression: mitigated the effect of busulfan
[8]; treprostinil
  expression of TFPI: induced
[8]; treprostinil in TESCs
  regulation of expression of mRNA of TFPI, concentration dependence: concentration-dependent manner
[9]; sole addition of treprostinil
  intracellular cAMP levels: did not suffice to increase intracellular cAMP levels
[9]; treprostinil 10 μM, cells sensitized with forskolin (1 to 30 μM)
  intracellular cAMP levels: further increased intracellular cAMP levels
[10]
  agonism at EP3-receptors: low affinity agonist
[11]
  stimulation of EP2-receptors: selectively stimulates
[12]
  stimulation of EP4-receptors: selectively stimulates

## CCCCC(C)(C)[C@H](O)/C=C/[C@H]1[C@H](O)CC(=O)[C@@H]1C/C=C\CCCC(=O)O [dimethyl-PGE2]
[10]
  agonism at EP3-receptors: full agonist

## CCCCC[C@H](O)/C=C/[C@H]1[C@H](O)CC(=O)[C@@H]1CCCCCCC(=O)O [PGE1, prostaglandin E1]
[13]; PGE1 alone (Senzolo M. et al., 2007)
  advantage in VOD: failed to show any advantage

## CS(=O)(=O)OCCCCOS(C)(=O)=O [busulfan, 1,4-butanediol dimethanesulfonate]
[14]; busulfan 10 μM-1 mM, 48 hours, absence of hepatocytes (FIG. 2)
  cell death of TSECs, concentration dependence: induced cell death in a concentration dependent manner
[14]; busulfan 10 μM-1 mM, after 24 h
  cell death of TSECs: No obvious cell death
[14]; busulfan, also at lower concentrations, after 72 h
  cell death of TSECs: almost complete cell death
[4]; 48 h pretreatment of TSECs
  highest busulfan concentration allowing harvest of mRNA of adequate quality for qPCR: 125 µM
[4]; busulfan 125 μM for 48h
  yield of RNA compared to untreated cells (100%): 85%
[4]; busulfan 250 μM for 48h
  yield of RNA compared to untreated cells (100%): 74%
[5]; busulfan 125 μM, 24 h
  PAI-1 expression: induces the expression
[6]; busulfan 125 μM, 24 h
  TF expression: induces the expression
[7]; busulfan 125 μM, 24 h
  thrombomodulin (TM) expression: decreased the expression
[8]; busulfan
  expression of TFPI: induced
[15]
  tolerated concentration: ≤ 300 µM

## CCCCC[C@H](O)/C=C/[C@H]1[C@H](O)CC(=O)[C@@H]1C/C=C\CCCC(=O)O [prostaglandin E2]
[13]; in combination with heparin (Senzolo M. et al., 2007)
  incidence of VOD: lower incidence of VOD
